In paper PMC9250534, “Synthesis and direct assay of large macrocycle diversities by combinatorial late-stage modification at picomole scale” (Nature Communications, 2022):
Numbered stars: 1 amine (or outer) side, 2 acyl side, 3 side chain; on linkers, the order of the positions; unused ones are H or OH. Bridge positions count the residues as written; N and C are the ends. Square brackets hold non-standard residues; d marks the D form. Peptide text beside a SMILES is read from it. * marks the point of attachment. Pyrazinoyl(5-oxo-4H) = O=C(c1c[nH]c(=O)cn1)*; 2Thenoyl(5-Cl) = O=C(c1ccc(Cl)s1)*; Cysteamide = C(CS[*:3])N[*:1]; X3 = O=C(Cc1c[nH]c2ccccc12)*; Orn = NCCC[CH](N)C(=O)O; dDap = NC[C@@H](N)C(=O)O; Api = NC1(C(=O)O)CCNCC1; Dap = NC[CH](N)C(=O)O; Bz = O=C(c1ccccc1)*; βAla = NCCC(=O)O; Mpa = O=C(O)CCS

Target: T1, thrombin (Homo sapiens, UniProt P00734)
T1 construct: consists of two polypeptide chains of 36 (light chain) and 259 amino acid
Test: Thrombin inhibition screen of crude macrocycle reactions (residual thrombin activity, fluorogenic substrate Z-Gly-Gly-Arg-AMC)
Type: biochemical
Details: 10 µM macrocycle concentration; for % thrombin activity, Original screen / % thrombin activity, Repeat screen: macrocycles containing acid 14, crude reaction; for % thrombin activity, Repeat screen: replicate reaction and screen; for percent residual thrombin activity: crude reactions, Library 1a-l, scaffold AA1-AA2-AA3 combined with 1-16 or '-'
How it was run: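 Each crude macrocycle (10 μM) was preincubated 10 min at room temperature with thrombin (2 nM final) in Tris-Cl pH 7.4 containing NaCl, MgCl2, CaCl2, 0.1% BSA, 0.01% Triton X-100 and 0.6% DMSO. Z-Gly-Gly-Arg-AMC (50 μM final) was then added. Inhibition came from fluorescence slopes relative to DMSO-only controls.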

SMILES | % thrombin activity, Original screen [%] | % thrombin activity, Repeat screen [%] | percent residual thrombin activity [%]
CC1NC(=O)CCSSCCNC(=O)c2cccc(c2)CNC(=O)C(CCCCNC(=O)c2ccc(Cl)s2)NC1=O (centres unmarked) [X a D1 B5] | 102.5 | 104.4 | 
COc1ccc(C(=O)NCCCC[C@@H]2NC(=O)CCSSCCNC(=O)c3ccc(cc3)CNC(=O)[C@H](CO)NC2=O)cn1 [D1-S-B3/10] |  |  | 111.469
CC(C)C[C@@H]1NC(=O)CCSSCCNC(=O)[C@@H]2CCCN2C(=O)[C@@H](CNC(=O)c2ccc(Cl)s2)NC1=O [X L D4 B1] ([Mpa]L[dDap](2Thenoyl(5-Cl))P-Cysteamide; disulfide 1-C) | 107.5 | 100.9 | 
O=C(NCCCC[C@@H]1NC(=O)[C@@H]2CCCN2C(=O)CCSSCCNC(=O)[C@@H](Cc2ccc(O)cc2)NC1=O)c1c[nH]c(=O)cn1 [B1-D1-y/9] ([Mpa]PK(Pyrazinoyl(5-oxo-4H))[dY]-Cysteamide; disulfide 1-C) |  |  | 107.785
C[C@H]1NC(=O)CCSSCCNC(=O)c2cccc(c2)CNC(=O)[C@H](CCCCNC(=O)c2cnccn2)NC1=O [a-D1-B5/2] |  |  | 104.737
CC[C@H](C)[C@@H]1NC(=O)[C@H](CNC(=O)c2ccc(Cl)s2)NC(=O)CCSSCCNC(=O)c2ccc(cc2)CNC1=O [X D3 I B3] | 87.6 | 88.8 | 
Cc1nnsc1C(=O)NCCCC[C@@H]1NC(=O)CCSSCCNC(=O)[C@@H](Cc2ccc(O)cc2)NC(=O)[C@H]2CCCN(C2)C1=O [D1-B4-y/15] |  |  | 108.72
O=C(Cc1c[nH]c2ccccc12)NCCCC[C@@H]1NC(=O)[C@@H](Cc2ccc(O)cc2)NC(=O)CCSSCCNC(=O)[C@@H]2CCCN2C1=O [y-D1-B1/12] ([Mpa][dY]K(X3)P-Cysteamide; disulfide 1-C) |  |  | 104.378
Cc1nnsc1C(=O)NCCCC[C@@H]1NC(=O)[C@@H](Cc2ccc(O)cc2)NC(=O)c2ccc(cc2)CNC(=O)CCSSCCNC1=O [B3-y-D1/15] |  |  | 112.065
O=C1CCSSCCNC(=O)c2ccc(cc2)CNC(=O)[C@H](CCCCNC(=O)c2ccc(Cl)s2)NC(=O)[C@@H](Cc2ccccc2)N1 [X f D1 B3] | 100.5 | 105.5 | 
O=C1CCSSCCNC(=O)C2(CCN(C(=O)c3ccc(Cl)s3)CC2)NC(=O)[C@@H]2CCCN2C(=O)[C@@H](CO)N1 [X s B1 D6] ([Mpa][dS]P[Api](2Thenoyl(5-Cl))-Cysteamide; disulfide 1-C) | 104.7 | 110.4 | 
O=C(NCCC[C@@H]1NC(=O)[C@H](CO)NC(=O)[C@@H]2CCCN2C(=O)CCSSCCNC1=O)c1ccccc1 [B1-S-D2/1] ([Mpa]PS[Orn](Bz)-Cysteamide; disulfide 1-C) |  |  | 109.462
CC[C@H](C)[C@@H]1NC(=O)[C@H](CCCNC(=O)c2cnccn2)NC(=O)c2cccc(c2)CNC(=O)CCSSCCNC1=O [B5-D2-I/2] |  |  | 109.077
CCC(C)C1NC(=O)C(CCCNC(=O)c2ccc(Cl)s2)NC(=O)CCSSCCNC(=O)C2CCCN2C1=O (centres unmarked) [X D2 I B1] ([Mpa][Orn](2Thenoyl(5-Cl))IP-Cysteamide; disulfide 1-C; configuration not given here) | 96.9 | 90.4 | 
O=C1CCSSCCNC(=O)C(Cc2ccccc2)NC(=O)C2CC(NC(=O)c3ccc(Cl)s3)CN2C(=O)c2cccc(c2)CN1 (centres unmarked) [X B5 D5 f] | 91.3 | 95.8 | 
CC1NC(=O)CCSSCCNC(=O)C2CCCN2C(=O)C(CNC(=O)c2ccc(Cl)s2)NC1=O (centres unmarked) [X a D4 B1] ([Mpa]A[Dap](2Thenoyl(5-Cl))P-Cysteamide; disulfide 1-C; configuration not given here) | 108.4 | 109.8 | 
O=C1CCSSCCNC(=O)[C@H](CCCCNC(=O)c2ccc(Cl)s2)NC(=O)[C@H](Cc2c[nH]cn2)NC(=O)c2ccc(cc2)CN1 [B3-H-D1/14] |  |  | 102.666
NC(=O)CC[C@@H]1NC(=O)[C@H](CCCCNC(=O)c2ccco2)NC(=O)C2(CC2)CNC(=O)CCSSCCNC1=O [B6-D1-Q/16] |  |  | 101.173
CC[C@H](C)[C@@H]1NC(=O)[C@H](CCCNC(=O)c2ccccc2)NC(=O)CCSSCCNC(=O)CCNC1=O [D2-I-B2/1] ([Mpa][Orn](Bz)I[βAla]-Cysteamide; disulfide 1-C) |  |  | 109.798
COc1ccc(C(=O)NCCCC[C@@H]2NC(=O)CCSSCCNC(=O)[C@@H](Cc3ccc(O)cc3)NC(=O)CCNC2=O)cn1 [D1-B2-y/10] |  |  | 108.421
O=C1CCNC(=O)C2(CCN(C(=O)c3ccc(Cl)s3)CC2)NC(=O)[C@@H](Cc2ccccc2)NC(=O)CCSSCCN1 [X f D6 B2] | 97.4 | 95.6 | 
CC[C@H](C)[C@@H]1NC(=O)[C@H](CCCNC(=O)c2ccc(Cl)s2)NC(=O)CCSSCCNC(=O)CCNC1=O [X D2 I B2] | 94.1 | 96.8 | 
O=C1CCSSCCNC(=O)[C@H](CCCCNC(=O)c2c[nH]c(=O)[nH]c2=O)NC(=O)[C@H](Cc2ccc(O)cc2)NC(=O)C2(CC2)CN1 [B6-Y-D1/11] |  |  | 105.574

SMILES | % thrombin activity, Original screen [%] | % thrombin activity, Repeat screen [%] | percent residual thrombin activity [%]
C[C@H]1NC(=O)CCNC(=O)CCSSCCNC(=O)C2(CCN(C(=O)c3ccc(Cl)s3)CC2)NC1=O [X B2 a D6] | 96.5 | 92.7 | 
O=C1CCSSCCNC(=O)C2(CC2)CNC(=O)[C@H](Cc2c[nH]cn2)NC(=O)[C@H](CCCCNC(=O)c2ccc(Cl)s2)N1 [X D1 H B6] | 105.8 | 107.1 | 
NC(=O)CC[C@@H]1NC(=O)c2cccc(c2)CNC(=O)CCSSCCNC(=O)[C@H](CNC(=O)c2ccc(Cl)s2)NC1=O [X B5 Q D3] | 95.3 | 96.2 | 
COc1ccc(C(=O)NCCC[C@@H]2NC(=O)CCSSCCNC(=O)CCNC(=O)[C@@H](C)NC2=O)cn1 [D2-a-B2/10] |  |  | 113.133
O=C1CCSSCCNC(=O)[C@@H](Cc2ccc(O)cc2)NC(=O)CCNC(=O)[C@H](CCCNC(=O)c2ccccc2)N1 [D2-B2-y/1] |  |  | 109.22
O=C1NCCSSCCC(=O)N2CC(NC(=O)c3ccc(Cl)s3)CC2C(=O)NC(CO)C(=O)NCc2ccc1cc2 (centres unmarked) [X D5 s B3] | 92.6 | 101.4 | 
CC(C)C[C@@H]1NC(=O)CCSSCCNC(=O)[C@H](CCCN)NC(=O)[C@H]2CCCN(C2)C1=O [L-B4-D2/-] |  |  | 109.552
O=C1CCNC(=O)[C@@H](CO)NC(=O)CCSSCCNC(=O)[C@H](CCCCNC(=O)c2c[nH]c(=O)[nH]c2=O)N1 [s-B2-D1/11] |  |  | 113.521
O=C(NCCCC[C@@H]1NC(=O)[C@@H](Cc2c[nH]c3ccccc23)NC(=O)[C@H]2CCCN(C2)C(=O)CCSSCCNC1=O)c1ccc(Cl)s1 [B4-w-D1/14] |  |  | 105.59
C[C@H]1NC(=O)CCSSCCNC(=O)[C@H](CCCCN)NC(=O)CCNC1=O [a-B2-D1/-] |  |  | 105.008
CC(C)[C@@H]1NC(=O)[C@H](CCCNC(=O)c2ccccc2)NC(=O)C2(CC2)CNC(=O)CCSSCCNC1=O [B6-D2-V/1] |  |  | 108.209
COc1ccc(C(=O)NCCCC[C@@H]2NC(=O)[C@H](Cc3cnc[nH]3)NC(=O)c3ccc(cc3)CNC(=O)CCSSCCNC2=O)cn1 [B3-H-D1/10] |  |  | 107.476
O=C1CCSSCCNC(=O)[C@H](CCCCNC(=O)c2ccco2)NC(=O)[C@H](Cc2cnc[nH]2)NC(=O)c2ccc(cc2)CN1 [B3-H-D1/16] |  |  | 107.22
O=C1CCSSCCNC(=O)c2ccc(cc2)CNC(=O)[C@H](Cc2c[nH]c3ccccc23)NC(=O)[C@H](CCCNC(=O)c2ccc(Cl)s2)N1 [D2-W-B3/14] |  |  | 109.796
C[C@H]1NC(=O)CCSSCCNC(=O)[C@H](CCCCNC(=O)c2c[nH]c(=O)[nH]c2=O)NC(=O)CCNC1=O [a-B2-D1/11] |  |  | 107.663
NC(=O)CC[C@@H]1NC(=O)c2ccc(cc2)CNC(=O)[C@H](CCCNC(=O)c2c[nH]c(=O)cn2)NC(=O)CCSSCCNC1=O [D2-B3-Q/9] |  |  | 109.29
CC[C@H](C)[C@@H]1NC(=O)CCSSCCNC(=O)[C@H]2CCCN(C2)C(=O)[C@H](CCCCNC(=O)c2ccc(Cl)s2)NC1=O [X I D1 B4] | 102.2 | 101.6 | 
COc1ccc(C(=O)NCCC[C@@H]2NC(=O)[C@H]3CCCN(C3)C(=O)[C@H](CC(C)C)NC(=O)CCSSCCNC2=O)cn1 [L-B4-D2/10] |  |  | 107.664
O=C1CCSSCCNC(=O)[C@@H](Cc2ccccc2)NC(=O)c2cccc(c2)CNC(=O)C2(CCN(C(=O)c3ccc(Cl)s3)CC2)N1 [X D6 B5 f] | 92.3 | 95.8 | 
COc1ccc(C(=O)NCCC[C@@H]2NC(=O)CCSSCCNC(=O)CCNC(=O)[C@H](CO)NC2=O)cn1 [D2-S-B2/10] |  |  | 107.459
O=C1CCSSCCNC(=O)[C@@H]2CCCN2C(=O)[C@H](CCCCNC(=O)c2ccccc2)NC(=O)[C@H](Cc2c[nH]c3ccccc23)N1 [W-D1-B1/1] ([Mpa]WK(Bz)P-Cysteamide; disulfide 1-C) |  |  | 101.199
O=C1CCSSCCNC(=O)C2CCCN2C(=O)C(Cc2ccc(O)cc2)NC(=O)C(CCCNC(=O)c2ccc(Cl)s2)N1 (centres unmarked) [X D2 Y B1] ([Mpa][Orn](2Thenoyl(5-Cl))YP-Cysteamide; disulfide 1-C; configuration not given here) | 96.4 | 96.3 | 
